Data reported in US20110172223A1, “Substituted Aryl Sulfone Derivatives as Calcium Channel Blockers” (priority 2008, published 2011).

Legend:
[1] = target: T1, Human Cav2.2 channels (Homo sapiens, UniProt Q00975); assay: Fluorescent assay for Cav2.2 channels using potassium depolarization to initiate channel opening (Assay Example 1); format: cell-based; conditions: Table 2
T1 construct: expressed in transfected cells
Source text: Fluorescent Assay for Cav2.2 Channels Using Potassium Depolarization to Initiate Channel Opening
(§1) Human Cav2.2 channels were stably expressed in KEK293 cells along with alpha2-delta and beta subunits of voltage-gated calcium channels. An inwardly rectifying potassium channel (Kir2.3) was also expressed in these cells to allow more precise control of the cell membrane potential by extracellular potassium concentration. At low bath potassium concentration, the membrane potential is relatively negative, and is depolarized as the bath potassium concentration is raised. In this way, the bath potassium concentration can be used to regulate the voltage-dependent conformations of the channels. […]
(§2) Calcium influx through Cav2.2 channels is determined using a calcium-sensitive fluorescent dye in combination with a fluorescent plate reader. Fluorescent changes were measured with either a VIPR (Aurora Instruments) or FLIPR (Molecular Devices) plate reader.
(§3) • 1. […] Read cell plate on VIPR instrument, Excitation=480 nm, Emission=535 nm • 9. With VIPR continuously reading, add 0.1 ml (96-well plate) or 0.03 ml (384-well plate) of Depolarization Buffer, which is 2× the final assay concentration, to the cell plate.

[2] = target: T2, N-type calcium channel (CaV2.2) (Homo sapiens, UniProt Q00975); assay: N-type calcium channel antagonist activity in the aforementioned assays (Assay Examples 1-3: fluorescent, IonWorks HT, PatchXpress/manual patch clamp); format: cell-based; conditions: antagonizing the N-type calcium channel; which of Assay Examples 1-3 is not specified
T2 construct: expressed in transfected cells
T2 sequence (Q00975 whole entry): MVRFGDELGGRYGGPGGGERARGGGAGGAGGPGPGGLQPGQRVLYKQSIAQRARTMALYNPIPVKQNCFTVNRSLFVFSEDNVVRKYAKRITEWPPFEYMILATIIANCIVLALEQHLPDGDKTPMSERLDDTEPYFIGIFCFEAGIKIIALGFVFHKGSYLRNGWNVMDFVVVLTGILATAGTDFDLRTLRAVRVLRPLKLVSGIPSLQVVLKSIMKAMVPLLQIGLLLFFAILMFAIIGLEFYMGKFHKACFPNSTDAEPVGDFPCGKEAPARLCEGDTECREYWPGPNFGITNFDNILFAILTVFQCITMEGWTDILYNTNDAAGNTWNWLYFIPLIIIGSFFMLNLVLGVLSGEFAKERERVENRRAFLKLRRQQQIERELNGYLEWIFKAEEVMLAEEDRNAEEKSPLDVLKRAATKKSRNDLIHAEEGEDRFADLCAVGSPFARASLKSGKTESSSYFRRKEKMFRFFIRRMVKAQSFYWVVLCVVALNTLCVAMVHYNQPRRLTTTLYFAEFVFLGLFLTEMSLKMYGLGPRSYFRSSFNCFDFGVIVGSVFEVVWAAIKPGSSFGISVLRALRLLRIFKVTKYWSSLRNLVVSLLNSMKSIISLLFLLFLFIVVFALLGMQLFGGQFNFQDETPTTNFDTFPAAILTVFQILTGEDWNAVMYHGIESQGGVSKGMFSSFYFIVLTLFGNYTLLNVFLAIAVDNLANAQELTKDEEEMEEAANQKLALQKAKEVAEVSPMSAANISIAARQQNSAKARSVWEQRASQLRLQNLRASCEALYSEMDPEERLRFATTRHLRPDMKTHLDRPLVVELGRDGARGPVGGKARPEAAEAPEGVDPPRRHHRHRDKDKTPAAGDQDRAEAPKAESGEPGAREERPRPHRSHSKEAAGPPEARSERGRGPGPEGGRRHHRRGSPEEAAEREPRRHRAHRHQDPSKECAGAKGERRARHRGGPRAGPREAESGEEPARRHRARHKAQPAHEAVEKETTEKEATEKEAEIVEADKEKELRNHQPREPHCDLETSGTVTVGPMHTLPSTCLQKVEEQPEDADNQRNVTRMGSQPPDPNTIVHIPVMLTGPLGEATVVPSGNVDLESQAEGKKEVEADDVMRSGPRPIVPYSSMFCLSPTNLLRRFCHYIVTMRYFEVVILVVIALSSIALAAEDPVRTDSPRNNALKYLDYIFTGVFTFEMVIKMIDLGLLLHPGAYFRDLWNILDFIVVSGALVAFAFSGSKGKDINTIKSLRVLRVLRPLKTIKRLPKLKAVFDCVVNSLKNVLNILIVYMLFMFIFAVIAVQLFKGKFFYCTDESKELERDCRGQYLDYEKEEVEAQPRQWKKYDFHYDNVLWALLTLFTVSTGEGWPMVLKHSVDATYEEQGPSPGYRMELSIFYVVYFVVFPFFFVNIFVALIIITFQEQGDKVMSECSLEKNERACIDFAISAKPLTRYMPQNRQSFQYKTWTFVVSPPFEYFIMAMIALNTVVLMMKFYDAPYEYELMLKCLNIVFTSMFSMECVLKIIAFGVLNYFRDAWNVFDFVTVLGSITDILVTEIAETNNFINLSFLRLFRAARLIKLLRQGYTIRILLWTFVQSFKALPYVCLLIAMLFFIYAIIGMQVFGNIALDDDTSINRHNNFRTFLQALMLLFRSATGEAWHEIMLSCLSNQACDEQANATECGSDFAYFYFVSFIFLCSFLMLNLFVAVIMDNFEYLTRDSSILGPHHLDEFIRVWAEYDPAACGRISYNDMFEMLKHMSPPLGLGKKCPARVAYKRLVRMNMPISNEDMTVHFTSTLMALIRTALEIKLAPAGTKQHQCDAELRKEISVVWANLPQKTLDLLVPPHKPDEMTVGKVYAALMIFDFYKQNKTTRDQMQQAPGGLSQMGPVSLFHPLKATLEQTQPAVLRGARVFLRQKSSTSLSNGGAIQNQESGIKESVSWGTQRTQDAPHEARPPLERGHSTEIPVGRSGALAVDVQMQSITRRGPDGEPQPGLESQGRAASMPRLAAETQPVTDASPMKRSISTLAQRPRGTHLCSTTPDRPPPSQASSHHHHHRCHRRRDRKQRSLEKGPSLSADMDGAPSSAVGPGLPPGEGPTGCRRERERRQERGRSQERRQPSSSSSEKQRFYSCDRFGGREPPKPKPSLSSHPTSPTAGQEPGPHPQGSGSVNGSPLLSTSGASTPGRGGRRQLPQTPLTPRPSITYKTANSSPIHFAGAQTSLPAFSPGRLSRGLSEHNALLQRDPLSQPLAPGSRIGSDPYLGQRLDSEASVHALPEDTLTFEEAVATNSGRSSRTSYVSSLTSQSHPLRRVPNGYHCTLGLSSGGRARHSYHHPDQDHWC
T2 sequence (P54289 25-946 partner limits assumed): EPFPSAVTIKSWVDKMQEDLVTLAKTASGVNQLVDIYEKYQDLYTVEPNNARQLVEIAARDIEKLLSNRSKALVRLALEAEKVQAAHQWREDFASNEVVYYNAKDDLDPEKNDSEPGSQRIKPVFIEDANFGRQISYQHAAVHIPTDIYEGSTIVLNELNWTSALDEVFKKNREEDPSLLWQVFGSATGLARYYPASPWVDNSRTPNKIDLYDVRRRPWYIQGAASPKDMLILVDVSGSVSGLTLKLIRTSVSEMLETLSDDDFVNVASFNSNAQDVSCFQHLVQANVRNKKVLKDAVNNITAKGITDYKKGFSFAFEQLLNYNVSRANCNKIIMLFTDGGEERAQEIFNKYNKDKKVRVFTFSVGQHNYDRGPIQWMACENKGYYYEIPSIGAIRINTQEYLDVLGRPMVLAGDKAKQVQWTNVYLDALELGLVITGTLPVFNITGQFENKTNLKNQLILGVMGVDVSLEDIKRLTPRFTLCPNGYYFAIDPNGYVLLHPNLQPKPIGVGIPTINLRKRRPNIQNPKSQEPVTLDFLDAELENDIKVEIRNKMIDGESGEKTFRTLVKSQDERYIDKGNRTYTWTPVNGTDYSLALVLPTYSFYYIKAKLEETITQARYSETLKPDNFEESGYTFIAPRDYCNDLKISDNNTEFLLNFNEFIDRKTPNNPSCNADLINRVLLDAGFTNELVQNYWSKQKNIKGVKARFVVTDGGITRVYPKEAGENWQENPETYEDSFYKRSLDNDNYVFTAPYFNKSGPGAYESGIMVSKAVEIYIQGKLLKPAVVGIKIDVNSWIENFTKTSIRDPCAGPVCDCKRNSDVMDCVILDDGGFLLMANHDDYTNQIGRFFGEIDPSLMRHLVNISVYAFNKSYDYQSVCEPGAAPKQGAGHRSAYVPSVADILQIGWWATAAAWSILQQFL
T2 sequence (P54289 947-1103 partner limits assumed): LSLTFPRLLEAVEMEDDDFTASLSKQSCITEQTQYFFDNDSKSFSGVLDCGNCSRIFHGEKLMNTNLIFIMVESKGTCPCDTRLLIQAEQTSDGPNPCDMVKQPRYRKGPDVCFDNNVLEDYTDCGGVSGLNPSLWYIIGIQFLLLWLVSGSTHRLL
T2 sequence (P54284 whole entry partner): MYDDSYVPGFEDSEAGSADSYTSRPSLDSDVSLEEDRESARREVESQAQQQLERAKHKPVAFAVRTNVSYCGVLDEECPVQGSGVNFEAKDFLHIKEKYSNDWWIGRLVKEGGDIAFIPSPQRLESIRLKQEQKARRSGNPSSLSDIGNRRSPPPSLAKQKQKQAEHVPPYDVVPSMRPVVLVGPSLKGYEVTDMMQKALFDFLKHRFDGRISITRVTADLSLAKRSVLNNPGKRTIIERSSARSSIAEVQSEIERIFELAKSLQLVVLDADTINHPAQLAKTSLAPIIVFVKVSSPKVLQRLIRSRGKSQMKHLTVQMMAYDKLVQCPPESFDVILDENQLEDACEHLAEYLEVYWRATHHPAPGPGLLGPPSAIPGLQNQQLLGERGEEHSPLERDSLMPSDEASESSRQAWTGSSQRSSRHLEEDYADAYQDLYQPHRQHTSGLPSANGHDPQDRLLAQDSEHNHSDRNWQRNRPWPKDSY
Source text: as §1, §2, §3
Block of N-type calcium channels is evaluated utilizing the IonWorks HT 384 well automated patch clamp electrophysiology device. […]

T1 sequence (Q00975 whole entry): as the sequence (Q00975 whole entry) above
T1 sequence (P54289 25-946 partner limits assumed): as the sequence (P54289 25-946 partner limits assumed) above
T1 sequence (P54289 947-1103 partner limits assumed): as the sequence (P54289 947-1103 partner limits assumed) above
T1 sequence (P54284 whole entry partner): as the sequence (P54284 whole entry partner) above

Row | IC50 [1] [nM] | IC50 [2] [nM] | Structure (SMILES)
1 | 745 | – | CC(C)(C1CN(c2ccc(C(F)(F)F)cc2)C(=O)O1)S(=O)(=O)c1cccc(C(F)(F)F)c1 (stereo not drawn)
2 | – | 1520 | CC(C)([C@H]1CN(c2ccc(C(F)(F)F)cn2)C(=O)CO1)S(=O)(=O)c1cccc(C(F)(F)F)c1 [Example 6, (6R)-6-(1-methyl-1-{[3-(trifluoromethyl)phenyl]sulfonyl}ethyl)-4-[5-(trifluoromethyl)pyridin-2-yl]morpholin-3-one]
3 | 1510 | – | CC(C)([C@H]1CN(c2ccc(C(F)(F)F)cn2)C(=O)CO1)S(=O)(=O)c1cccc(C(F)(F)F)c1 [drawing 26]
